US11447550B2, “Peptides for molecular detection of PD-L1” (THE CURATORS OF THE UNIVERSITY OF MISSOURI, priority 2016, dated 2022)
Ends that are not written are not given here. * marks the point of attachment. Biotin = O=C1N[C@H]2[C@H](CS[C@H]2CCCCC(=O)*)N1

Columns and labels:
PD-L1 [1] = molecular target: T1, PD-L1 (Homo sapiens, UniProt Q9NZQ7); assay: Immunohistochemistry using biotinylated peptide on FFPE tissues; format: binding; design: Seven PD-L1 expressing NSCLC patient tissues were obtained from the MU OneHealth tissue bank; tissue MU OneHealth tissue bank; U.S. Biomax (TMA) LC1923; host or cells: FFPE placenta, seven NSCLC patient tissues, 192-case lung cancer tissue microarray, four Hodgkin's lymphoma cases; settings: for staining of placental trophoblasts: FFPE placenta tissue (positive control), FIG. 8
T1 sequence (Q9NZQ7 19-290): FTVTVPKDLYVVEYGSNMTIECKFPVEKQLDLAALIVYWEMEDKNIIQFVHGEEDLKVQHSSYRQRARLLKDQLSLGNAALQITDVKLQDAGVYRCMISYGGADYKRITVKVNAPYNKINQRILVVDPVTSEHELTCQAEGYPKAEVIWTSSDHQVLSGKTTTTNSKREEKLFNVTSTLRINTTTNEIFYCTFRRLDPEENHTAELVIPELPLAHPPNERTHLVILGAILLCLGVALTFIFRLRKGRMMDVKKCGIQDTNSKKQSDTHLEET
From the text: To detect PD-L1 in FFPE tissues, manual IHC techniques were employed with a biotin-conjugated version of peptide RK-10-Cy5 and compared with Ventana PD-L1 (SP263) Rabbit monoclonal Primary Antibody stained on a Roche Benchmark Ultra autostainer. Seven PD-L1 expressing NSCLC patient tissues were obtained from the MU OneHealth tissue bank and de-identified according to IRB protocols. Paraffin-embedded patient tissue slides were baked overnight, then de-waxed and rehydrated according to standard protocols. Tissue sections were then subjected to antigen retrieval in EDTA at 95° C. for 20 minutes in EDTA […]. The solution is then cooled for an additional 20 minutes on the bench top prior to buffer rinse. Tissues were then incubated with […] for 2 hours in a humid chamber at RT. After 2 hours, slides were washed with buffer and treated with PIERCE™ High Sensitivity Streptavidin-HRP (1:200 dilution) (Sigma) for 30 minutes at RT in a humid chamber. Once this was complete, slides were again washed in buffer then treated with DAB (3,3′-Diaminobenzidine; Sigma) for 10 minutes. Slides were again washed in buffer, then dehydrated using graded alcohol and xylene and counterstained with hematoxylin. Slides were then imaged using bright-field microscopy on a Leica DM5500.
Seven Patient NSCLC tissues were investigated for PD-L1 using either manual IHC with 15 μM RK-10-Biotin peptide, or the Ventana PD-L1 (SP263) rabbit monoclonal primary antibody stained on a Roche Benchmark Ultra. In this study the peptide was conjugated with biotin, which was used to bind a secondary treatment of streptavidin-HRP. Formalin-Fixed, Paraffin Embedded (FFPE) placenta tissue was used as the positive control, since PD-L1 is expressed in placental trophoblasts (Veras, E., Kurman, R. J., Wang, T.-L. & Shih, I.-M. International Journal of Gynecological Pathology Publish Ahead of Print). This study also utilized biotinylated mock peptide RK-11-Biotin as a negative control. This mock peptide was synthesized to have very low affinity to PD-L1. Both the PD-L1 peptide and Ventana clone SP263 stained the trophoblasts heavily in the placental tissue (FIG. 8). […] Blocking of the Ventana antibody was achieved by first treating the placenta tissue with RK-10-Biotin for 30 minutes, washing, and treating on the Roche autostainer according to specifications. […] As a negative control, normal lung, breast, and colorectal tissues were stained using RK-10 and SP263.
Once confidence in PD-L1 staining was established in repeated placenta tissues, staining in seven NSCLC patient tissues (patients ‘A’ through ‘G’) was compared with the Ventana SP263 antibody and RK-10-Biotin (FIG. 9). […]

PD-L1 [2] = molecular target: T1, PD-L1; assay: IHC blocking using PD-L1 peptide or Ventana antibody SP263; format: binding; design: Seven PD-L1 expressing NSCLC patient tissues were obtained from the MU OneHealth tissue bank; tissue MU OneHealth tissue bank; U.S. Biomax (TMA) LC1923; host or cells: FFPE placenta, seven NSCLC patient tissues, 192-case lung cancer tissue microarray, four Hodgkin's lymphoma cases; settings: placenta tissue treated with RK-10-Biotin for 30 minutes, then Ventana SP263 on Roche autostainer, FIG. 8 panel c
Protocol: To test specificity of the PD-L1 peptide, PD-L1 receptors were first blocked on the tissue with RK-10 peptide for 1 hour prior to autostaining the tissue with SP263 antibody using the Roche autostainer with the Ventana PD-L1 kit according to Roche's specifications. Blocking of the RK-10 peptide using the SP263 antibody was also investigated by first treating the tissue with SP263 antibody for 30 minutes prior to treating the tissue with peptide according to the previously mentioned protocol.
Seven Patient NSCLC tissues were investigated for PD-L1 using either manual IHC with 15 μM RK-10-Biotin peptide, or the Ventana PD-L1 (SP263) rabbit monoclonal primary antibody stained on a Roche Benchmark Ultra. In this study the peptide was conjugated with biotin, which was used to bind a secondary treatment of streptavidin-HRP. Formalin-Fixed, Paraffin Embedded (FFPE) placenta tissue was used as the positive control, since PD-L1 is expressed in placental trophoblasts (Veras, E., Kurman, R. J., Wang, T.-L. & Shih, I.-M. International Journal of Gynecological Pathology Publish Ahead of Print). This study also utilized biotinylated mock peptide RK-11-Biotin as a negative control. This mock peptide was synthesized to have very low affinity to PD-L1. Both the PD-L1 peptide and Ventana clone SP263 stained the trophoblasts heavily in the placental tissue (FIG. 8). […]

Row | staining of normal tissues (PD-L1 [1]; normal lung, breast and colorectal tissues (negative control)) | Substance | staining of placental trophoblasts (PD-L1 [1]) | tumor staining in NSCLC patient tissues (PD-L1 [1]; seven NSCLC patient tissues A-G, 15 μM peptide, FIG. 9) | SP263 staining after pre-blocking with peptide (PD-L1 [2])
1 | – | Biotin-GSGSGSFVLNWYRMSPSNQTDKLAA [RK-11-Biotin] | light staining at high concentrations | – | –
2 | – | Biotin-GSGSGSTYLCGAISLAPKAQIKESL [RK-10-Biotin] | heavy membrane staining of the trophoblast cells | heaviest staining was observed localized to the tumor regions of the tissues | drastic reduction of staining
3 | negative for PD-L1 expression | GSGSGSTYLCGAISLAPKAQIKESL [RK-10] | – | – | –
